Source: patent US9315544B2, “Method of treating eosinophilia by administering an immunomodulating peptide” (National Tsing Hua University, priority 2012, dated 2016)

Experiments:
[1] = test system: human lung cancer A549; experiment: Transwell migration assay, A549; type: cell-based; conditions: 5 μM CMP pretreatment 30 min, 18 hours
Description: FIG. 10 illustrates Tumor migration inhibition by CMP. A549, H460 and mouse colon cancer cells were incubated with CMP at 37° C. for 30 min before adding to the top chamber of transwell membranes in 24-well dishes at a density of 2×10^4 cells/well. Data represented the mean±S.E. of triplicate samples from a representative experiment. The experiment was repeated at least three times with similar results
Cancer cell inhibition by CMP was performed in a 24-well Transwell chamber consisting of a cell culture insert (6.4 mm diameter, 8-1 μm pore polyethylene tetraphtalate membrane, [Becton Dickinson]) set in each well of a 24-well companion plate (Becton Dickinson). Briefly, 3×10^4 cancer cells were suspended and pretreated with 5 and 12.5 μM CMP for 30 min in a total volume of 200 μL. Cell suspensions were inoculated into the upper chamber of an insert, 5% fetal bovine serum (FBS) in medium as a chemoattractant was added to the plate well in the bottom chamber, and incubated for 18 hours in a humidified incubator at 37° C. with 5% CO2. The non-migratory cells on the upper membrane surface were removed with a cotton swab, and the migratory cells attached to the lower membrane surface were fixed with 4% paraformaldehyde and stained with 0.2% crystal violet. The number of migrated cells was counted in four randomly selected high power fields under microscope. […]

[2] = test system: IL-17A/F; experiment: Cytokine ELISA of lung protein extract (IL-17A/F); type: in vivo, BALB/c mouse; conditions: eIN+mIT, mIT+eIN and eIN+mIT+eIN groups
Source text: (§1) FIG. 4 illustrates experimental design. All groups except control group were immunized with mite crude extract allergen on days 1 and 8, then mite crude extract allergen intratracheally on day 15 in all mite treated group, BALB/c mouse were divided into six groups (1) control group (PBS), (2) mites delivered intratracheally (mIT, mite on day 15) alone, (3) CMP intranasal (eIN, CMP on days 1 to 22) alone, (4) preventive-treatment group (eIN+mIT, CMP on days 1 to 14, mite on day 15) (5) therapy-treatment group (mIT+eIN, mite on day 15, CMP on days 15 to 22), and (6) preventive- and therapeutic-treatment group (eIN+mIT+eIN, CMP on days 1 to 22, mite on day 15).
(§2) FIG. 9 illustrates inhibitory effect of CMP on lung protein extract. Lung protein extracts from different groups of mouse were assayed for the indicated cytokines. Data represent one of three independent experiments. Levels of CCL-11, IL-5, IL-13 and IL-17A/F levels in lung protein extracts from mouse from treatment groups were measured by Enzyme-linked immunosorbent assay (ELISA). Each result was expressed as the mean±S.D., n=4. **, P<0.01, ***, P<0.001. […]
(§3) Levels of cytokines from lung protein extract were measured by ELISA. […] The microplates were read at 450 nm with an ELISA reader (Thermo Labsystems, Waltham, Mass., USA). […]

[3] = test system: IL-13; experiment: Cytokine ELISA of lung protein extract (IL-13); type: in vivo, BALB/c mouse; conditions: eIN+mIT, mIT+eIN and eIN+mIT+eIN groups
Source text: as §1, §2, §3

NYRWRCKNQN (CMP)
decrease of migration activity [1]: 60%
IL-17A/F levels in lung protein extract compared with mIT group [2]: much lower
IL-13 in lung protein extract compared with mIT group [3]: lower concentrations
